Columns and labels:
[1] = Accelerated aging of curatives in polyol mix with water and temperature; type: physicochemical; conditions: curative 2.0 parts
Text: [Note: polyols supplied to Shepherd as their 4-component polyol systems by Huntsman.] BiCAT 8108 is bismuth neodecanoate, 20 wt % bismuth.

[2] = Moisture stability of curative in polyol side of two-part TDI spray-foam system; type: physicochemical
Method: BiCAT 8842 was used in a two-part polyurethane system (TDI) for spray-foam applications. The BiCAT 8842 was added at 0.125 wt % to the polyol side (B-part). In addition, the polyol side contained 2.5 wt % water. […] The same dosage of stannous octoate curative was added to the TDI-tin-based control formulation.

[3] = DAY 1, DI water 2.5 parts, oven 130° F.
[4] = DAY 2, DI water 2.5 parts, oven 130° F.
[5] = DAY 3, DI water 2.5 parts, oven 130° F.
[6] = DAY 4, DI water 2.5 parts, oven 160° F.
[7] = DAY 5, DI water 4.0 parts, oven 160° F.
[8] = DAY 6, DI water 4.0 parts, oven 160° F.

Substance	Stability [1, 3]	Stability [1, 4]	Stability [1, 5]	Stability [1, 6]	Stability [1, 7]	Stability [1, 8]	time until formulation began to turn white (bismuth hydrolysis to the hydroxide) ([2]; same use level, polyol side containing 2.5 wt % water) [min]	stability in the presence of moisture ([2]; 0.125 wt % in polyol side (B-part) containing 2.5 wt % water)
bismuth neodecanoate [BiCAT 8108, reference compound]	transparent	transparent	transparent	transparent	very sl. hazy	opaque; ppt formation	–	–
bismuth neodecanoate [reference compound]	–	–	–	–	–	–	~14	–
bismuth, 2,2′,2″,2′″-(1,2-ethanediyldinitrilo)tetrakis[ethanol] neodecanoate complexes [Curative 8842]	transparent	transparent	transparent	transparent	transparent	transparent	–	remained stable for many weeks
bismuth, 1,1′,1″,1′″-(1,2-ethanediyldinitrilo)tetrakis[2-propanol] neodecanoate complexes [Curative 8840]	transparent	transparent	transparent	transparent	transparent	transparent	–	–
